Data from US10568854B2, “Compositions and methods for treating kabuki syndrome and related disorders” (THE JOHNS HOPKINS UNIVERSITY, priority 2014, dated 2020).
Entries after “also recorded” stand apart in the source; their conditions may differ.

Test system: genome-wide H3K4me3 in spleen cells
Assay: ChIP-seq of H3K4me3 in spleen cells
Format: in vivo, mouse
Settings: 10 mg/kg/day, Kmt2d^+/βGeo mice
Protocol: ChIP-seq: Spleens were dissected from eight mice, four from each kmt2d genotype (+/βGeo or +/+) where half of each genotype was treated with AR-42 and half with vehicle only. Spleens were minced and passed through a […] cell strainer to obtain single cell suspensions. 10 million cells were used for each ChIP-seq experiment following the native chromatin immunoprecipitation protocol, as previously described (Gilfillan et al. (2012) BMC Genomics 13:645), using a ChIP-grade antibody against H3K4me3 (9727, Cell Signaling Technology, Beverly, Mass.).
ChIP-seq data analysis: Sequencing was performed using a MiSeq system (Illumina, San Diego, Calif.). 4.8-9.6 million paired-end 26 by reads were obtained per sample (Table 2; nReads=number of reads, alignRate=fraction aligned to genome; FRIP=fraction of reads in peaks). Reads were aligned to the m. musculus genome, version mm10, using Bowtie 2 (Langmead and Salzberg (2012) Nat. Methods. 9: 357-9). Each sample was examined with regard to alignment rate as well as FRIP (fraction of reads in peaks), a measure of the ChIP efficiency (Table 2). […] For analysis, reads were merged into one meta-sample and peak calling was performed using MACS version 1.4.2 (Zhang et al. (2008) Genome Biol. 9: R137). […] This created a peak by sample matrix of read counts. […] Fold change and overall abundance was calculated as per edgeR. […]

CC(C)[C@H](C(=O)Nc1ccc(C(=O)NO)cc1)c1ccccc1 [AR-42, (S)—N-hydroxy-4-(3-methyl-2-phenylbutanamido)benzamide]
genome-wide H3K4me3 (ChIP-seq): genome-wide increase in H3K4me3; also recorded: improved
